Results taken from patent US20260206756A1, “COMPOUNDS AND METHODS OF TREATING OR PREVENTING A BACTERIAL INFECTION IN A PLANT” (Ohio State Innovation Foundation, priority 2023, published 2026).
In brackets after ≈: the same amount, converted by molar mass. Like-named read-outs stand apart in the source and are kept apart here.

Experiments:
[1] = tested on: Pss SM1042-14R on pepper seedlings; assay type: in vivo, Pseudomonas syringae pv. syringae; details: 200 μM, 7 dpi; for Pseudomonas leaf spot incidence, Curative application / Pseudomonas leaf spot incidence, Preventative application: streptomycin 200 μg/ml, CuSO4 200 μM
[2] = tested on: Pss SM1042-14R in infested pepper seeds; test: Antimicrobial efficacy on pepper seeds artificially infested with Pss; assay type: in vivo, Pseudomonas syringae pv. syringae; details: 20 days post infestation, 200 μM, 20 min soak
Protocol: Antimicrobial efficacy of ten selected PCs on pepper seeds artificially infested with Pss SM1042-14R. ‘California Wonder’ pepper seeds were used for artificial infestation with Pss SM1042-14R and PC treatment. Inoculum of Pss SM1042-14R was prepared by growing SM1042-14R in M9 minimal medium overnight as described above. The OD600 was adjusted to 0.1; approximately 1×10^8 CFU/ml. The adjusted inoculum (45 ml of inoculum for 4 g seeds) was transferred to a sterile glass beaker and placed in a Nucerite desiccator (Nalge Sybron, Milwaukee, WI, USA). Seeds were vacuum infiltrated with inoculum at 15 PSI for 5 min. Infested seeds were air-dried in a laminar flow hood at room temperature for 12 h. The dried seeds were transferred to 5 ml sterile tubes and soaked in 1 ml of PCs (200 μM) diluted in sterile water for 20 min. The seeds were air-dried again. Seed aliquots were collected at 1, 3-, 10-, 20-, and 30-days post infestation (dpi, 10 seeds per treatment group per time point). Bacterial populations were estimated by macerating five batches of two seeds per treatment group in 400 μl of 1×PBS in a Whirl Pak bag. […] This was performed twice.

[3] = tested on: Pseudomonas syringae pv. syringae (Pss) SM109-18; test: Dose-response assay (MIC/MBC) in M9 minimal broth; details: 48 h
Protocol: (§1) Primary screening of 4,182 SMs was conducted using a high throughput screening method to identify SMs that inhibited the growth of Pss SM1042-14R strain. A fresh bacterial culture of SM1042-14R was grown in M9 minimal broth in a shaking incubator (180 rpm) for 12 h at 28° C. The bacterial culture was normalized to a final optical density (OD600) of 0.05 (c.a., 8.0×10^7 CFU/ml) using a Genesys 20 spectrophotometer (Thermo Scientific, Rockford, IL, USA). In a sterile flat-bottom 96-well plate, 98 μl of the normalized bacterial suspension was challenged with 2 μl of SMs (final concentration of 200 μM). Controls were bacteria challenged with 2% DMSO (positive control; μc+), 50 μg/ml kanamycin (negative control; μc−), or M9 broth alone (blank control). The plate was incubated in a Sunrise Tecan kinetic microplate reader (Tecan Group Ltd., San Jose, CA, USA) for 48 h at 28° C. OD600 was measured every 30 min.
(§2) The plate was agitated for 15 s at 180 rpm before reading the OD600. Growth inhibition of SM1042-14R by the SMs was calculated using the following formula: % of inhibition=(μc+−X)/(μc+−μc−)×100, where μc+ and μc− is the average final OD600 of the positive and negative controls, respectively, and X is the final OD600 of each of the bacterial culture treated with a designated SM. After the 48 h of incubation with the SMs at 28° C., the viability of the bacterial culture was assessed by plating 5 μl of the culture on YDC (Yeast Dextrose Carbonate) agar medium, incubating the plate at 28° C. and monitoring any bacterial colonies on the plate after 48 h.
(§3) A dose-response assay was conducted with the 15 PCs identified during the primary screening against 10 Pss strains including the model strain, SM1042-14R. The dose-response assay was conducted as described above with concentrations of PCs ranging from 3.125 to 500 μM. Pss treated with non-amended M9 minimal media, 2% DMSO, or 50 μg/ml kanamycin were used as controls. The plate was incubated in a Sunrise Tecan kinetic microplate reader for 48 h at 28° C. The percentage of inhibition and cell viability were determined as described above.

[4] = tested on: Pseudomonas syringae pv. syringae (Pss) SM156-18; test: Dose-response assay (MIC/MBC) in M9 minimal broth; details: 48 h
Protocol: (§4) Minimum inhibitory concentration (MIC) and minimum bactericidal concentration (MBC) of the 15 PCs against 10 Pss strains. A dose-response assay was conducted with the 15 PCs identified during the primary screening against 10 Pss strains including the model strain, SM1042-14R. The dose-response assay was conducted as described above with concentrations of PCs ranging from 3.125 to 500 μM. Pss treated with non-amended M9 minimal media, 2% DMSO, or 50 μg/ml kanamycin were used as controls. The plate was incubated in a Sunrise Tecan kinetic microplate reader for 48 h at 28° C. The percentage of inhibition and cell viability were determined as described above.

[5] = tested on: Pseudomonas syringae pv. syringae (Pss) SM914-13; test: Dose-response assay (MIC/MBC) in M9 minimal broth; details: 48 h
Protocol: as §4

[6] = tested on: Pseudomonas syringae pv. syringae (Pss) SM1038-14; test: Dose-response assay (MIC/MBC) in M9 minimal broth; details: 48 h
Protocol: as §4

[7] = tested on: Pseudomonas syringae pv. syringae (Pss) SM51-19; test: Dose-response assay (MIC/MBC) in M9 minimal broth; details: 48 h
Protocol: as §4

[8] = tested on: Pseudomonas syringae pv. syringae (Pss) SM1031-14; test: Dose-response assay (MIC/MBC) in M9 minimal broth; details: 48 h
Protocol: as §1, §2, §3

[9] = tested on: Pseudomonas syringae pv. syringae (Pss) SM1030-14; test: Dose-response assay (MIC/MBC) in M9 minimal broth; details: 48 h
Protocol: as §1, §2, §3

[10] = tested on: Pseudomonas syringae pv. syringae (Pss) SM155-18; test: Dose-response assay (MIC/MBC) in M9 minimal broth; details: 48 h
Protocol: as §1, §2, §3

[11] = tested on: Pseudomonas syringae pv. syringae (Pss) SM04-2018-04; test: Dose-response assay (MIC/MBC) in M9 minimal broth; details: 48 h
Protocol: as §4

[12] = tested on: Pseudomonas syringae pv. syringae (Pss) SM1042-14R; test: Dose-response assay (MIC/MBC) in M9 minimal broth; details: strain SM1042-14R, 48 h, 28° C.
Protocol: as §1, §2, §3

[13] = preventative (1 day prior to inoculation)
[14] = strain SM109-18, M9 broth, 28° C.
[15] = strain SM156-18, M9 broth, 28° C.
[16] = strain SM914-13, M9 broth, 28° C.
[17] = strain SM1038-14, M9 broth, 28° C.
[18] = strain SM51-19, M9 broth, 28° C.
[19] = strain SM1031-14, M9 broth, 28° C.
[20] = strain SM1030-14, M9 broth, 28° C.
[21] = strain SM155-18, M9 broth, 28° C.
[22] = strain SM04-2018-04, M9 broth, 28° C.

| SMILES | Pseudomonas leaf spot incidence, Curative application [1] | Pseudomonas leaf spot incidence, Preventative application [1] | MBC ([3]; Pseudomonas syringae) | MIC ([3]; Pseudomonas syringae) | MBC ([4]; Pseudomonas syringae) | MIC ([4]; Pseudomonas syringae) | MBC ([5]; Pseudomonas syringae) | MIC ([5]; Pseudomonas syringae) | MBC ([6]; Pseudomonas syringae) | MIC ([6]; Pseudomonas syringae) | MBC ([7]; Pseudomonas syringae) | MIC ([7]; Pseudomonas syringae) | MBC ([8]; Pseudomonas syringae) | MIC ([8]; Pseudomonas syringae) | MBC ([9]; Pseudomonas syringae) | MIC ([9]; Pseudomonas syringae) | MBC ([10]; Pseudomonas syringae) | MIC ([10]; Pseudomonas syringae) | MBC ([11]; Pseudomonas syringae) | MIC ([11]; Pseudomonas syringae) | further results |
| --- | --- | --- | --- | --- | --- | --- | --- | --- | --- | --- | --- | --- | --- | --- | --- | --- | --- | --- | --- | --- | --- |
| O=S(=O)([O-])[O-].[Cu+2] [CuSO4, copper sulfate] | 57% | 100% | – | – | – | – | – | – | – | – | – | – | – | – | – | – | – | – | – | – | Pss reduction compared to the DMSO group ([1]; curative (1 dpi)): 1.1±0.5 log CFU/g; disease severity (number of lesions per two leaves) ([1]; curative (1 dpi), first trial): 28.1±13.9 lesions; disease severity (number of lesions per two leaves) [1, 13]: 188.4±163.5 lesions; reduction in Pss load compared to the DMSO group [1, 13]: 0.05±0.01 log CFU/g; reduction in Pss load in infested seeds [2]: 1.9±0.5 log CFU/g |
| CCCCCCCCCCCCCCCCn1c[n+](C)c2ccccc21 [PC1] | 86% | 100% | 12.5 µM | 6.25 µM | 12.5 µM | 6.25 µM | 12.5 µM | 6.25 µM | 25 µM | 12.5 µM | 12.5 µM | 6.25 µM | 12.5 µM | 6.25 µM | 25 µM | 6.25 µM | 12.5 µM | 6.25 µM | 12.5 µM | 6.25 µM | – |
| CCN1/C(=C/c2ccc3ccccc3[n+]2CC)C=Cc2ccccc21 [PC2] | 86% | 100% | 12.5 µM | 12.5 µM | 25 µM | 6.25 µM | 25 µM | 6.25 µM | 25 µM | 12.5 µM | 50 µM | 6.25 µM | 25 µM | 6.25 µM | 50 µM | 6.25 µM | 25 µM | 12.5 µM | 25 µM | 6.25 µM | – |
| CCCCCCCCCCCCCCCC[n+]1ccn(CC#N)c1.[Cl-] [PC3] | 86% | 100% | – | – | – | – | – | – | – | – | – | – | – | – | – | – | – | – | – | – | MBC [3, 14]: 25 µM; MIC [3, 14]: 25 µM; MBC [4, 15]: 50 µM; MIC [4, 15]: 25 µM; MBC [5, 16]: 25 µM; MIC [5, 16]: 12.5 µM; MBC [6, 17]: 50 µM; MIC [6, 17]: 25 µM; MBC [7, 18]: 50 µM; MIC [7, 18]: 25 µM; MBC [8, 19]: 25 µM; MIC [8, 19]: 25 µM; MBC [9, 20]: 50 µM; MIC [9, 20]: 25 µM; MBC [10, 21]: 50 µM; MIC [10, 21]: 25 µM; MBC [12]: 25 µM; MIC [12]: 25 µM; MBC [11, 22]: 25 µM; MIC [11, 22]: 12.5 µM |
| CC1CCC(C(C)C)C(OC(=O)Cn2c[n+](CC(=O)OC3CC(C)CCC3C(C)C)c3ccccc32)C1 (centres unmarked) [PC4] | 100% | 100% | 12.5 µM | 12.5 µM | 12.5 µM | 12.5 µM | 12.5 µM | 12.5 µM | 12.5 µM | 12.5 µM | 12.5 µM | 12.5 µM | 12.5 µM | 12.5 µM | 12.5 µM | 12.5 µM | 25 µM | 12.5 µM | 25 µM | 12.5 µM | – |
| CCOc1ccc2nc3cc(N)ccc3c(N)c2c1 [PC7] | – | 86% | – | – | – | – | – | – | – | – | – | – | – | – | – | – | – | – | – | – | MBC [3, 14]: 100 µM (≈ 25.3 µg/mL); MIC [3, 14]: 50 µM (≈ 12.7 µg/mL); MBC [4, 15]: 100 µM (≈ 25.3 µg/mL); MIC [4, 15]: 50 µM (≈ 12.7 µg/mL); MBC [5, 16]: 50 µM (≈ 12.7 µg/mL); MIC [5, 16]: 25 µM (≈ 6.33 µg/mL); MBC [6, 17]: 100 µM (≈ 25.3 µg/mL); MIC [6, 17]: 50 µM (≈ 12.7 µg/mL); MBC [7, 18]: 200 µM (≈ 50.7 µg/mL); MIC [7, 18]: 50 µM (≈ 12.7 µg/mL); MBC [8, 19]: 100 µM (≈ 25.3 µg/mL); MIC [8, 19]: 50 µM (≈ 12.7 µg/mL); MBC [9, 20]: 100 µM (≈ 25.3 µg/mL); MIC [9, 20]: 50 µM (≈ 12.7 µg/mL); MBC [10, 21]: 100 µM (≈ 25.3 µg/mL); MIC [10, 21]: 50 µM (≈ 12.7 µg/mL); MBC [12]: 100 µM (≈ 25.3 µg/mL); MIC [12]: 50 µM (≈ 12.7 µg/mL); MBC [11, 22]: 100 µM (≈ 25.3 µg/mL); MIC [11, 22]: 50 µM (≈ 12.7 µg/mL) |
